Laboratory results taken from PubChem BioAssay (NCI).
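Five concentrations, 48 hours, 96-well plates. Abbreviation: GI50, concentration required for 50% inhibition of growth. TGI: concentration producing complete growth inhibition.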

Key:
Assay in all cases: NCI-60 cell line screen, 48 h
SW-620 colon = system: SW-620 colon
UACC-62 melanoma = system: UACC-62 melanoma
SF-295 CNS = system: SF-295 CNS
NCI-H23 lung = system: NCI-H23 lung
MDA-MB-435 = system: MDA-MB-435
UO-31 renal = system: UO-31 renal
HT29 colon = system: HT29 colon
SF-539 CNS = system: SF-539 CNS
CCRF-CEM leukemia = system: CCRF-CEM leukemia
HCT-116 colon = system: HCT-116 colon
U251 CNS = system: U251 CNS
M14 melanoma = system: M14 melanoma
LOX IMVI melanoma = system: LOX IMVI melanoma
786-0 renal = system: 786-0 renal
SK-OV-3 ovarian = system: SK-OV-3 ovarian
MOLT-4 leukemia = system: MOLT-4 leukemia
SK-MEL-5 melanoma = system: SK-MEL-5 melanoma
SF-268 CNS = system: SF-268 CNS
ACHN renal = system: ACHN renal
SK-MEL-28 melanoma = system: SK-MEL-28 melanoma
COLO 205 colon = system: COLO 205 colon
MDA-MB-231 breast = system: MDA-MB-231 breast
NCI-H460 lung = system: NCI-H460 lung
A549 NSCLC = system: A549 NSCLC
MCF7 breast = system: MCF7 breast
HCC-2998 colon = system: HCC-2998 colon
RPMI-8226 leukemia = system: RPMI-8226 leukemia
OVCAR-8 ovarian = system: OVCAR-8 ovarian
HOP-62 NSCLC = system: HOP-62 NSCLC
EKVX NSCLC = system: EKVX NSCLC
HOP-92 NSCLC = system: HOP-92 NSCLC
IGROV1 ovarian = system: IGROV1 ovarian
OVCAR-3 ovarian = system: OVCAR-3 ovarian
UACC-257 melanoma = system: UACC-257 melanoma
DU-145 prostate = system: DU-145 prostate
A498 renal = system: A498 renal
K-562 leukemia = system: K-562 leukemia
HS 578T breast = system: HS 578T breast
SN12C renal = system: SN12C renal
NCI-H522 lung = system: NCI-H522 lung
PC-3 prostate = system: PC-3 prostate
SNB-19 CNS = system: SNB-19 CNS
OVCAR-4 ovarian = system: OVCAR-4 ovarian
SNB-75 CNS = system: SNB-75 CNS
KM12 colon = system: KM12 colon
SR leukemia = system: SR leukemia
OVCAR-5 ovarian = system: OVCAR-5 ovarian
BT-549 breast = system: BT-549 breast
NCI-H226 lung = system: NCI-H226 lung
RXF 393 renal = system: RXF 393 renal
NCI/ADR-RES ovarian = system: NCI/ADR-RES ovarian
MALME-3M melanoma = system: MALME-3M melanoma
HCT-15 colon = system: HCT-15 colon
CAKI-1 renal = system: CAKI-1 renal
TK-10 renal = system: TK-10 renal

## O=C(CNc1cccc(Cl)c1)Nn1c(-c2ccccc2)nc2ccccc2c1=O
SW-620 colon
  TGI: 7.37 µM
UACC-62 melanoma
  TGI: 7.83 µM
SF-295 CNS
  TGI: 28.5 µM
NCI-H23 lung
  TGI: 8.11 µM
MDA-MB-435
  TGI: 15.2 µM
UO-31 renal
  TGI: 31 µM
HT29 colon
  TGI: 24.9 µM
SF-539 CNS
  TGI: 13.6 µM
CCRF-CEM leukemia
  TGI: 8.73 µM
HCT-116 colon
  TGI: 4.07 µM
U251 CNS
  TGI: 3.41 µM
M14 melanoma
  TGI: 6.19 µM
LOX IMVI melanoma
  TGI: 2.74 µM
786-0 renal
  TGI: 7.24 µM
SK-OV-3 ovarian
  TGI: 23.7 µM
MOLT-4 leukemia
  TGI: 8.62 µM
SK-MEL-5 melanoma
  TGI: 2.88 µM
SF-268 CNS
  TGI: 22.9 µM
ACHN renal
  TGI: 26.5 µM
SK-MEL-28 melanoma
  TGI: 29.9 µM
COLO 205 colon
  TGI: 20.2 µM
MDA-MB-231 breast
  TGI: 10.8 µM
NCI-H460 lung
  TGI: 29.2 µM
A549 NSCLC
  TGI: 46.4 µM
MCF7 breast
  TGI: 4.32 µM
HCC-2998 colon
  TGI: 23.9 µM
RPMI-8226 leukemia
  TGI: > 100 µM
OVCAR-8 ovarian
  TGI: > 100 µM
HOP-62 NSCLC
  TGI: 30.8 µM
EKVX NSCLC
  TGI: 34.4 µM
HOP-92 NSCLC
  TGI: 7.45 µM
IGROV1 ovarian
  TGI: 17.9 µM
OVCAR-3 ovarian
  TGI: 21.1 µM
UACC-257 melanoma
  TGI: 42.2 µM
DU-145 prostate
  TGI: 44.9 µM
A498 renal
  TGI: 43.5 µM
K-562 leukemia
  TGI: 18.1 µM
HS 578T breast
  TGI: 65 µM
SN12C renal
  TGI: 13.6 µM
NCI-H522 lung
  TGI: 2.98 µM
PC-3 prostate
  TGI: 22.9 µM
SNB-19 CNS
  TGI: 31.6 µM
OVCAR-4 ovarian
  TGI: 19.3 µM
SNB-75 CNS
  TGI: 13.8 µM
KM12 colon
  TGI: 24.9 µM
SR leukemia
  TGI: > 100 µM
OVCAR-5 ovarian
  TGI: 32.8 µM
BT-549 breast
  TGI: 3.95 µM
NCI-H226 lung
  TGI: 35.3 µM

## COc1cc(-c2nc3ccc(C)cc3[nH]2)ccc1OCC(=O)N=Nc1c(O)[nH]c2ccc(Cl)cc12
SF-295 CNS
  GI50: 1.8 µM
  TGI: 3.36 µM
NCI-H23 lung
  GI50: 2.06 µM
  TGI: 6.18 µM
SF-539 CNS
  GI50: 1.63 µM
  TGI: 3.05 µM
U251 CNS
  GI50: 0.418 µM
  TGI: 1.66 µM
LOX IMVI melanoma
  GI50: 0.289 µM
  TGI: 1.01 µM
SK-OV-3 ovarian
  GI50: 3.44 µM
  TGI: > 100 µM
RXF 393 renal
  GI50: 1.59 µM
  TGI: 3.04 µM
ACHN renal
  GI50: 3.64 µM
  TGI: > 100 µM
NCI/ADR-RES ovarian
  GI50: > 100 µM
  TGI: > 100 µM
MDA-MB-231 breast
  GI50: 0.438 µM
  TGI: 1.67 µM
MALME-3M melanoma
  GI50: 1.64 µM
  TGI: 3.14 µM
HCT-15 colon
  GI50: 2.13 µM
  TGI: > 100 µM
HOP-62 NSCLC
  GI50: 2.31 µM
  TGI: 7.02 µM
EKVX NSCLC
  GI50: 3.85 µM
  TGI: > 100 µM
HOP-92 NSCLC
  GI50: 1.91 µM
  TGI: 7.05 µM
CAKI-1 renal
  GI50: 1.43 µM
  TGI: 2.93 µM
TK-10 renal
  GI50: 3.48 µM
  TGI: 9.5 µM
SNB-19 CNS
  GI50: 1.91 µM
  TGI: 5.57 µM
OVCAR-4 ovarian
  GI50: 2.24 µM
  TGI: 4.83 µM
SNB-75 CNS
  GI50: 1.43 µM
  TGI: 3.72 µM
BT-549 breast
  GI50: 2.97 µM
  TGI: > 100 µM
